The values that follow come from patent US11278582B2, “Compositions containing plant extracts and applications thereof” (TCI CO., LTD., priority 2017, dated 2022).

Molecules are shown by their SMILES.

The assay relates to adipocytes differentiated from OP9 mouse stromal cell line (ATCC CRL-2749). As to the kind of experiment: Oil red O staining of the fat content of adipocytes treated with plant extracts or combinations. The note with it: for Relative fat content: 7-10 days, relative to control group (100%). It counts as cell-based.

Method: The neutral fat content of cells was determined by oil red O staining. Prior to staining, the cells were washed twice with PBS and then fixed with 10% formaldehyde at room temperature for 30 minutes. The fixed cells were washed twice with PBS and rinsed with 60% isopropanol for 1 minute. Thereafter, the cells were stained with an oil red O staining solution (1.8 mg/ml oil red O dissolved in 60% isopropanol aqueous solution) for 1 hour, and then treated with 60% isopropanol for 5 seconds to remove excess dye. Lastly, 100% isopropanol was added to the cells and incubated with shaking for 10 minutes to dissolve the intracellular dye, and the absorbance of the cell suspension at 510 nm was measured using an ELISA (enzyme-linked immunosorbent assay) reader (BioTek). The statistical significance of differences between data was determined by Student's t-test using the Excel software.
Briefly, OP9 cells were seeded at 8×10^4 cells/well in 24-well culture plates, where each well contained 500 μl of pre-adipocyte expansion medium (90% DMEM, 20% FBS, and 1% penicillin/streptomycin), and cultured at 37° C. for 7 days. The medium was refreshed every 3 days during cell culture with adipocyte differentiation medium (90% DMEM medium, 20% FBS, and 1% penicillin/streptomycin). After 7 days, complete differentiation into adipocytes were confirmed by examining oil droplets formed in the cells using a microscope (ZEISS; at 400× magnification). Thereafter, each of the plant extracts or each of the compositions containing plant extracts, listed in TABLE 1, was added to the cells, which were then cultured at 37° C. for 7-10 days, during which the adipocyte differentiation medium was refreshed every 3 days. Finally, the medium was removed, and the cells of each group were washed with PBS and subjected to oil red O staining for determination of the fat content. The relative fat content is a ratio of the cellular fat content of the experimental group relative to that of the control group (expressed as a percentage). […]

With `CC(C)=CCC/C(C)=C/C=C/C(C)=C/C=C/C(C)=C/C=C/C=C(C)/C=C/C=C(C)/C=C/C=C(\C)CCC=C(C)C` [Lycopene], the Relative fat content (single treatment 0.015625 mg/ml) is given as 73.34%.

As to `CC1=C(/C=C/C(C)=C/C=C/C(C)=C/C=C/C=C(C)/C=C/C=C(C)/C=C/C2=C(C)CCCC2(C)C)C(C)(C)CCC1` [β-carotene], the Relative fat content (single treatment 0.5 mg/ml) came to 99.00%. For the setting “sole treatment, concentrations as in TABLE 1, Student's t-test”, the “Change of the fat content of adipocytes compared to the control group (in words)” value is “did not significantly reduce the fat content”.
